Laboratory results taken from patent US9868758B2, “Betulinic proline imidazole derivatives as HIV inhibitors” (HETERO LABS LIMITED, priority 2014, dated 2018).
pIC50: −log10 of the molar value.

Assays:
[1] = tested on: HIV-1 strains, for e.g., 92HT599; assay: Antiviral activity: p24 estimation in HIV-1 infected MT-2 cells; format: cell-based; conditions: Human immunodeficiency virus 1, MT2, MT-2 cells; for inhibition at 0.01 µM / inhibition at 0.1 µM / inhibition at 1 µM: p24, ~96 hours; for pIC50: p24, read-out: Antiviral activity IC50
Experimental: MT-2 cells were infected with required number of TCID50's of HIV-1 strains, for e.g., 92HT599. The infected cells were plated at the concentration of 30,000 cells per well in a 96 well plate. Test compound was added to the 96 well plate with the final concentration of DMSO (vehicle—not more than 1%). The plates are then incubated in a CO2 incubator for ˜96 hours (˜4 days) for viral infection. At the end of incubation period an aliquot from each well was taken for p24 estimation. The quantitation of p24 is an estimated index for antiviral activity of the compound. Percent inhibition was calculated with reference to control values (vehicle controls).
p-24 estimation was carried out using Advance biosciences kit as per the procedure detailed by supplier.

Cyto-toxicity, MTT assay = format: cell-based; conditions: read-out: Cytotoxicity % viability
Experimental: On day 1 calculate the number of cells required for the assay and seed 3×10^4 cells in 200 μl per well. Weigh the compound and dissolve it in DMSO to get 10 mM stock which is further diluted to 3 mM and 1 mM. The drugs from these stocks were added to plate to get final concentration of 100 μM, 30 μM and 10 μM. […] Incubate for 4 days in 5% CO2 incubator at 37° C. On day 4, 100 μl of medium was removed from each well without disturbing the cells. Add 10 μl of MTT reagent and incubate for 4 hours at 5% CO2 incubator at 37° C. for formation of crystals. Add 200 μl of 0.1N acidic isopropanol to dissolve the crystals and read the plate at 590 nm.

[2] = Single dose oral pharmacokinetic study; design: species or system mice; conditions: mouse, in vivo, po, 30 mg/kg
Experimental: The test item was administered through oral route to animals (rat/mice) at 30 mg/kg dose in a suitable vehicle at 10 ml/kg dose volume. Blood samples (˜50 uL at each time point) were collected from retro-orbital plexus using K3 EDTA as anticoagulant in eppendorf tubes at defined time intervals under light ether anesthesia. The samples were centrifuged at 3500×g to separate plasma and stored at −80° C. until analysis.
Sample analysis: Test samples were analyzed using LC-MS-MS after developing fit-for-purpose method for each of test compound.

C=C(C)[C@@H]1CC[C@]2(C(=O)N3C[C@H](OCCOC)C[C@H]3c3nc(-c4ccccc4)cn3CCC(C)C)CC[C@]3(C)[C@H](CC[C@@H]4[C@@]5(C)CC[C@H](OC(=O)[C@H]6C[C@@H](C(=O)O)C6(C)C)C(C)(C)[C@@H]5CC[C@]43C)[C@@H]12 [Compound 26, (1R,3S)-3-((((1R,3aS,5aR,5bR,7aR,9S,11aR,11bR,13aR,13bR)-3a-((2S,4R)-2-(1-isopentyl-4-phenyl-1H-imidazol-2-yl)-4-(2-methoxyethoxy)pyrrolidine-1-carbonyl)-5a,5b,8,8,11a-pentamethyl-1-(prop-1-en-2-yl)icosahydro-1H-cyclopenta[a]chrysen-9-yl)oxy)carbonyl)-2,2-dimethylcyclobutane-1-carboxylic acid]
inhibition at 0.01 µM [1]: 0%
inhibition at 0.1 µM [1]: 15%
inhibition at 1 µM [1]: 99%
viability at 4 days, 10 µM (Cyto-toxicity, MTT assay; 10 μM): 77%
viability at 4 days, 30 µM (Cyto-toxicity, MTT assay; 30 μM): 54%
viability at 4 days, 100 µM (Cyto-toxicity, MTT assay; 100 μM): 9%

C=C(C)[C@@H]1CC[C@]2(C(=O)N3C[C@H](OCCOC)C[C@H]3c3nc(-c4ccccc4)cn3CCN3CCCC3)CC[C@]3(C)[C@H](CC[C@@H]4[C@@]5(C)CC[C@H](OC(=O)[C@H]6C[C@@H](C(=O)O)C6(C)C)C(C)(C)[C@@H]5CC[C@]43C)[C@@H]12 [Compound 27, (1R,3S)-3-((((1R,3aS,5aR,5bR,7aR,9S,11aR,11bR,13aR,13bR)-3a-((2S,4R)-4-(2-methoxyethoxy)-2-(4-phenyl-1-(2-(pyrrolidin-1-yl)ethyl)-1H-imidazol-2-yl)pyrrolidine-1-carbonyl)-5a,5b,8,8,11a-pentamethyl-1-(prop-1-en-2-yl)icosahydro-1H-cyclopenta[a]chrysen-9-yl)oxy)carbonyl)-2,2-dimethylcyclobutane-1-carboxylic acid]
inhibition at 0.01 µM [1]: 0%
inhibition at 0.1 µM [1]: 100%
inhibition at 1 µM [1]: 100%
pIC50 [1]: 7.47
viability at 4 days, 0.01 µM (Cyto-toxicity, MTT assay): 60%
viability at 4 days, 0.1 µM (Cyto-toxicity, MTT assay): 24%
viability at 4 days, 1 µM (Cyto-toxicity, MTT assay): 8%
AUC(0-t) [2]: 355 µg·h/mL
Cmax [2]: 10900 ng/mL

C=C(C)[C@@H]1CC[C@]2(C(=O)N3C[C@H](OCCOC)C[C@H]3c3nc(-c4cccc(F)c4)cn3CCN3CCCC3)CC[C@]3(C)[C@H](CC[C@@H]4[C@@]5(C)CC[C@H](OC(=O)[C@H]6C[C@@H](C(=O)O)C6(C)C)C(C)(C)[C@@H]5CC[C@]43C)[C@@H]12 [Compound 28, (1R,3S)-3-((((1R,3aS,5aR,5bR,7aR,9S,11aR,11bR,13aR,13bR)-3a-((2S,4R)-2-(4-(3-fluorophenyl)-1-(2-(pyrrolidin-1-yl)ethyl)-1H-imidazol-2-yl)-4-(2-methoxyethoxy)pyrrolidine-1-carbonyl)-5a,5b,8,8,11a-pentamethyl-1-(prop-1-en-2-yl)icosahydro-1H-cyclopenta[a]chrysen-9-yl)oxy)carbonyl)-2,2-dimethylcyclobutane-1-carboxylic acid]
inhibition at 0.01 µM [1]: 13%
inhibition at 0.1 µM [1]: 98%
inhibition at 1 µM [1]: 100%
pIC50 [1]: 7.40
viability at 4 days, 0.01 µM (Cyto-toxicity, MTT assay): 65%
viability at 4 days, 0.1 µM (Cyto-toxicity, MTT assay): 19%
viability at 4 days, 1 µM (Cyto-toxicity, MTT assay): 6%
AUC(0-t) [2]: 293 µg·h/mL
Cmax [2]: 7300 ng/mL

C=C(C)[C@@H]1CC[C@]2(C(=O)N3CCC[C@H]3c3nc4ccccc4n3CCN(C)C)CC[C@]3(C)[C@H](CC[C@@H]4[C@@]5(C)CC[C@H](OC(=O)[C@H]6C[C@@H](C(=O)O)C6(C)C)C(C)(C)[C@@H]5CC[C@]43C)[C@@H]12 [Compound 29, (1R,3S)-3-((((1R,3aS,5aR,5bR,7aR,9S,11aR,11bR,13aR,13bR)-3a-((S)-2-(1-(2-(dimethylamino)ethyl)-1H-benzo[d]imidazol-2-yl)pyrrolidine-1-carbonyl)-5a,5b,8,8,11a-pentamethyl-1-(prop-1-en-2-yl)icosahydro-1H-cyclopenta[a]chrysen-9-yl)oxy)carbonyl)-2,2-dimethylcyclobutane-1-carboxylic acid]
inhibition at 0.01 µM [1]: 0%
inhibition at 0.1 µM [1]: 100%
inhibition at 1 µM [1]: 100%
pIC50 [1]: 8.01
viability at 4 days, 0.01 µM (Cyto-toxicity, MTT assay): 31%
viability at 4 days, 0.1 µM (Cyto-toxicity, MTT assay): 1%
viability at 4 days, 1 µM (Cyto-toxicity, MTT assay): 5%
AUC(0-t) [2]: 491 µg·h/mL
Cmax [2]: 14900 ng/mL

C=C(C)[C@@H]1CC[C@]2(C(=O)N3CCC[C@H]3c3nc4ccccc4n3CCN3CCCC3)CC[C@]3(C)[C@H](CC[C@@H]4[C@@]5(C)CC[C@H](OC(=O)[C@H]6C[C@@H](C(=O)O)C6(C)C)C(C)(C)[C@@H]5CC[C@]43C)[C@@H]12 [Compound 30, (1R,3S)-2,2-dimethyl-3-((((1R,3aS,5aR,5bR,7aR,9S,11aR,11bR,13aR,13bR)-5a,5b,8,8,11a-pentamethyl-1-(prop-1-en-2-yl)-3a-((S)-2-(1-(2-(pyrrolidin-1-yl)ethyl)-1H-benzo[d]imidazol-2-yl)pyrrolidine-1-carbonyl)icosahydro-1H-cyclopenta[a]chrysen-9-yl)oxy)carbonyl)cyclobutane-1-carboxylic acid]
inhibition at 0.01 µM [1]: 71%
inhibition at 0.1 µM [1]: 100%
inhibition at 1 µM [1]: 100%
pIC50 [1]: 7.99
viability at 4 days, 0.01 µM (Cyto-toxicity, MTT assay): 33%
viability at 4 days, 0.1 µM (Cyto-toxicity, MTT assay): 3%
viability at 4 days, 1 µM (Cyto-toxicity, MTT assay): 5%
AUC(0-t) [2]: 546 µg·h/mL
Cmax [2]: 14800 ng/mL
